According to patent publication US20260015341A1, “PI3K INHIBITOR, PREPARATION METHOD THEREFOR, AND USE THEREOF” (HINOVA PHARMACEUTICALS INC., priority 2022, published 2026):
pIC50: −log10 of the molar value.

Experiments:
T47D cells = experiment: Inhibitory effects on the proliferation of T47D cells (CellTiter-Glo); format: cell-based; details: Homo sapiens, 168 h, 7 days
Procedure: Experimental Example 3: Experiment of Inhibitory Effects on the Proliferation of T47D Cells
T47D cells (ATCC. #HTB-133) were diluted with RPMI 1640 (Gibco #22400-089) containing 10% FBS (Hyclone #SH30084.03), seeded in 96-well plate (Biosharp #BS-MP-96W) at 1000 cells/well, and then cultured for 24 h. Then, gradiently diluted compounds were added (starting at a final concentration of 10 μM, 3-fold dilution, 9 dose concentrations), and the final volume was adjusted to 150 μL/well. The plate was incubated at 37° C. under […] for 7 days. After the cultivation was completed, CellTiter-Glo reagent (Promega #G7573) was added at 75 μL/well, and then the plate was further incubated at 25° C. for 10 min. After that, the chemiluminescence value was read using an instrument.
The results are shown in the T47D IC50 column in Table 2.

MCF-10A cells = experiment: Inhibitory effects on the proliferation of MCF-10A cells (CCK8); format: cell-based; details: Homo sapiens, 144 h, 6 days
Procedure: Experimental Example 2: Experiment of Inhibitory Effects on the Proliferation of MCF-10A Cells
MCF-10A cells (Cobioer Bio. #CBP60419MCF) were diluted with complete medium (Cobioer Bio. #CBP60419), seeded in 96-well plate (Corning #3599) at 500 cells/well, and then cultured for 24 h. Then, gradiently diluted compounds were added (starting at a final concentration of 10 μM, 3-fold dilution, 9 dose concentrations), and the final volume was adjusted to 100 μL/well. The plate was incubated at 37° C. under 5% CO2 for 6 days. After the cultivation was completed, CCK8 reagent (Signalway Antibody Bio. #CP002) was added at 10 μL/well, and then the plate was further incubated at 37° C. under 5% CO2 for 2-3 hours. The OD450 nm value was obtained by a microplate reader.
The results are shown in the MCF-OA IC50 column in Table 2.

Pharmacokinetics in rats = format: in vivo, SD rats; details: rat; for AUC / half-life / clearance / Vd: male, SD, plasma; for Vd: read-out: VSS
Procedure: Experimental Example 4: The Pharmacokinetics of the Compound According to the Present Invention in Rats
(§1) 9 healthy adult male SD rats (three for each administration route of each compound) were fasted overnight (>12 h) before gavage, with free access to water; 4 hours after administration, rats could take food, and were administered via tail vein injection and gastric lavage, respectively. At different time points, intravenous blood sample was collected and anti-coagulated, wherein the anticoagulant was EDTA-K2 (the sample was placed in an ice bath after blood collection). The plasma was separated by centrifugation at 4° C. and 6000 g for 5 min, and stored at −70° C. for testing. The plasma concentration of compounds was determined by LC-MS/MS method.
(§2) The plasma concentration of compound at all time points was used to calculate the main pharmacokinetic parameters with Winnolin 8.3 non-compartmental model.
(§3) The area under the concentration-time curve AUCall value: calculated using the trapezoidal method; AUCinf=AUCall+Ct/ke, Ct is the plasma concentration at the last measurable time point, and ke is the elimination rate constant;
The elimination half life t1/2=0.693/ke;
(§4) The clearance rate CL=D/AUCinf (D is the administration dosage);
The volume of distribution at steady state Vss=CL×MRT, The mean retention time MRT=AUMC/AUC;

[1] = Pharmacokinetics in beagle dogs; format: in vivo; details: beagle dog
Procedure: Experimental Example 5: The Pharmacokinetics of the Compound According to the Present Invention in Beagle Dogs
as §1, with “beagle dogs” for “SD rats”, “forelimb venous” for “intravenous”, “3200” for “4° C. and 6000”, “10” for “5”
as §2, §3, §4
The volume of distribution at steady state Vss=CL×MRT. The mean retention time MRT=AUMC/AUC;

[2] = iv (tail vein injection), 1 mg/kg
[3] = male, plasma, po, ig (intragastric), 3 mg/kg
[4] = male, plasma, po, ig (intragastric), 10 mg/kg

pIC50 (T47D cells) | AUC (Pharmacokinetics in rats; po, ig (intragastric), 3 mg/kg) | half-life (Pharmacokinetics in rats; po, ig (intragastric), 3 mg/kg) | AUC (Pharmacokinetics in rats; [2]) | clearance (Pharmacokinetics in rats; [2]) | half-life (Pharmacokinetics in rats; [2]) | Vd (Pharmacokinetics in rats; [2]) | F (Pharmacokinetics in rats; ig (intragastric), 3 mg/kg) | F ([1]; ig (intragastric), 3 mg/kg) | F ([1]; ig (intragastric), 10 mg/kg) | AUC [1, 3] | half-life [1, 3] | AUC [1, 4] | half-life [1, 4] | AUC ([1]; male, plasma, iv, 1 mg/kg) | clearance ([1]; male, plasma, iv, 1 mg/kg) | half-life ([1]; male, plasma, iv, 1 mg/kg) | Vd ([1]; male, plasma, iv, 1 mg/kg, read-out: VSS) | SMILES | pIC50 (MCF-10A cells)
> 6.00 | 3430 ng·h/mL | 1.34 h | 1000 ng·h/mL | 16.3 mL/min/kg | 2.95 h | 1.71 L/kg | 79.6% | 27.1% | 24.9% | 760 ng·h/mL | 2.13 h | 2370 ng·h/mL | 4.19 h | 954 ng·h/mL | 17.4 mL/min/kg | 2.1 h | 0.828 L/kg | Cc1cc([C@@H](C)Nc2ccc(Cl)nc2C(=O)O)c2nc(-c3ccc(F)cc3)n(C)c(=O)c2c1 [Compound 65] | < 5.30
< 5.30 | 2360 ng·h/mL | 3.83 h | 978 ng·h/mL | 17.5 mL/min/kg | 3.79 h | 2.14 L/kg | 80.3% |  |  |  |  |  |  |  |  |  |  | Cc1cc([C@@H](C)Nc2ccc(Cl)nc2C(=O)O)c2nc(-c3ccccc3)n(C)c(=O)c2c1 [Compound 115] | < 5.30
